Experimental data taken from paper PMC9540525 (Cancer, 2022).

Assays:
[1] = Phase 1 study: plasma pharmacokinetics, noncompartmental analysis; type: in vivo, human
[2] = system: MMD gene expression in peripheral blood; assay: Phase 1 study: MMD gene expression in peripheral blood; type: in vivo, human; conditions: dose expansion, 60 mg once per week
[3] = Phase 1 study: treatment duration, modification, exposure and disposition; type: in vivo, human; conditions: dose expansion, NEN cohort, n=16
[4] = system: patient‐derived xenograft models; conditions: cited from earlier work

Compound: COc1ccc(-c2c(-c3ccc(C#N)c(F)c3)nc(N3CCC(N)CC3)n(C)c2=O)cc1F [CC‐90011]
- accumulation with repeat dosing based on the AUC ([1]; dose expansion, 60 mg once per week): Negligible accumulation
- time of peak CC-90011 concentration after treatment, approximate median ([1]; dose expansion, NEN, n = 16, 60 mg once per week): ~4 h
- terminal half-life ([1]; in words): long terminal half‐life
- downregulation in MMD gene expression in the peripheral blood [2]: ≥ 50%
- ≥1 dose interruption due to AE [3]: 10 (63%) n (%)
- antiproliferative activity in patient-derived xenograft models [4]: demonstrated antiproliferative activity
